# Earlier results as cited in patent US8038645B2 (Bayer Technology Services GmbH, priority 2005, dated 2011).
# Where two headings read alike, the source gives them in different places.
# Columns and labels:
# [1] = input parameter for PK-Sim
# [2] = input parameter for PK-Sim; remark: listed apart in the source
structure (smiles),measurement,setting,value
CC(C)c1cccc(C(C)C)c1O [propofol],Lipophilicity,[1],2.6
same,Free plasma fraction (age-dependent),[2],0.020-0.025
same,Blood clearance in ml/min: mean (std. dev.),"Ickz et al., adults, mean age 45.2 years, 21 mg/kg/h for 5 min, then 12 mg/kg/h for 10 min, then 6 mg/kg/h",33.8 (7.8) ml/min
same,Blood clearance in ml/min: mean (std. dev.),"Kanto et al., pregnant women, mean age 27.1 years, 2.5 mg/kg bolus over 0.17 min",27.5 (5.5) ml/min
same,Blood clearance in ml/min: mean (std. dev.),"Mertens et al., young men, mean age 24 years, 1 mg/kg bolus over 1 min, then 3 mg/kg/h",31.2 (2.8) ml/min
same,Blood clearance in ml/min: mean (std. dev.),"Raoof et al., children, mean age 1.9 years, 3 mg/kg iv",38.7 (6.8) ml/min
same,Blood clearance in ml/min: mean (std. dev.),"Saint-Maurice et al., children, mean age 5.5 years, 2.5 mg/kg bolus over 0.33 min",30.6 (2.9) ml/min
same,Blood clearance in ml/min: mean (std. dev.),"Valtonen et al., children, mean age 6.5 years, 2.5 mg/kg bolus over 0.5 min",32.0 (16.8) ml/min
same,Clearance (age-dependent),input parameter for PK-Sim,29 to 50 mL/min/kg
